# Assay results taken from patent US12239647B2, “ALS treatment using induced regulatory T (iTREG) cells” (RAPA THERAPEUTICS, LLC, priority 2018, dated 2025).
# Assays:
# [1] = system: peripheral blood mononuclear cells from an ALS patient; experiment: TCR repertoire profiling by RNA sequencing pre- and post-therapy with etanercept; type: in vivo, human
# Description: FIGS. 23A & 23B depict the use of RNA-based T cell receptor sequencing to detect a widespread up- and down-regulation of T cell TCR specificities after therapy with the TNF-α inhibitor, etanercept. In FIG. 23, RNA was isolated from peripheral blood mononuclear cells from an ALS patient pre- and post-therapy with etanercept therapy. The RNA was subjected to TCR repertoire profiling, as previously described by Rosati E, Dowds C M, Liaskou E, Henriksen E K K, Karlsen T H, Franke A. Overview of methodologies for T-cell receptor repertoire analysis. BMC Biotechnol. 2017; 17(1): 61.
# FIGS. 36A-36B depict use of RNA-based T cell receptor sequencing to detect a widespread up- and down-regulation of T cell TCR specificities after therapy with the TNF-α inhibitor, etanercept. In FIGS. 36A-36B, RNA was isolated from peripheral blood mononuclear cells from an ALS patient pre- and post-therapy with etanercept therapy. The RNA was subjected to TCR repertoire profiling, as previously described by Rosati E, Dowds C M, Liaskou E, Henriksen E K K, Karlsen T H, Franke A. Overview of methodologies for T-cell receptor repertoire analysis. BMC Biotechnol. 2017; 17(1): 61.
# [2] = system: human CD4+ and CD8+ T cells; experiment: Expansion of de-differentiated T cells in Th1, TREG or hybrid Th2/TREG polarization with or without pemetrexed; type: cell-based
# Description: FIG. 13 depicts favorable expansion of de-differentiated T cells in hybrid Th2/TREG polarization condition relative to Th1 polarization condition. Human CD4^+ and CD8^+ T cells were subjected to a 3-day de-differentiation procedure (“STEP 1”). […] In addition, the T cell culture in the presence of the variable polarization conditions was performed without the novel inhibitory molecule, pemetrexed (“0”) or in the presence of variable concentrations of pemetrexed, as indicated (10 nM [“10”]; 33 nM [“33”]; or 100 nM [“100”]. After a total of 10 days of culture, the n=24 cultures were harvested and live cells were enumerated and graphed above (y-axis indicated number of cells×10^6; input cell number was 1.5×10^6 cells).
# [3] = system: human CD4+ and CD8+ T cells; experiment: Flow cytometry of FOXP3, Tbet and GATA3 in extended hybrid Th2/TREG culture with temsirolimus or pemetrexed; type: cell-based; details: hybrid polarization condition with pemetrexed 10 nM
# Description: To evaluate these transcription factors in our manufacturing method, T cells were first subjected to the step 1 de-differentiation procedure and then re-differentiated in the hybrid TREG-Th2 culture condition (IL-2, TGF-β, and IL-4). In addition, we compared the effects of pemetrexed with a classical mTOR inhibitor.
# The iTREG phenotype is considered to be unstable; as such, we evaluated the stability of T cells re-differentiated using the hybrid TREG-Th2 culture condition at delayed time points, including days 20 and 32 of culture. In addition, to test phenotype stability in a rigorous manner, between day 24 and day 32 of culture, T cells received a high level of co-stimulation (3:1 bead-to-T cell ratio) and were propagated in media without cytokines or pharmacologic agents.
# FIGS. 19A-19D illustrate that extended culture of de-differentiated T cells in the hybrid Th2/TREG polarization condition containing pemetrexed results in the generation of CD4^+ T cells expressing FOXP3 and GATA3 transcription factors. […] At days 12, 20, and 32 of culture, T cells were harvested and subjected to surface flow cytometry (CD4 marker) and intra-cellular staining for the following transcription factors, FOXP3, Tbet, and GATA3. The data above show the percent CD4 cells out of the total cultured population (FIG. 19A); the percent of CD4 cells that expressed the TREG transcription factor FOXP3 (FIG. 19B); the percent of CD4 cells that expressed the Th1 transcription factor Tbet (FIG. 19C); and the percent of CD4 cells that expressed the Th2 transcription factor GATA3 (FIG. 19D).
# FIGS. 20A-20D illustrate that extended culture of de-differentiated T cells in the hybrid Th2/TREG polarization condition containing pemetrexed results in the generation of CD8^+ T cells expressing FOXP3 and GATA3 transcription factors. […] At days 12, 20, and 32 of culture, T cells were harvested and subjected to surface flow cytometry (CD8 marker) and intra-cellular staining for the following transcription factors, FOXP3, Tbet, and GATA3. […]
# [4] = system: human CD4+ and CD8+ T cells; experiment: Cytokine secretion (Luminex) in extended hybrid Th2/TREG culture with temsirolimus or pemetrexed; type: cell-based
# Description: (§1) FIGS. 21A-21D illustrates that extended culture of de-differentiated T cells in the hybrid Th2/TREG polarization condition results in the generation of T cells expressing with a predominant Th2 cytokine phenotype: IL-4, IL-5, and IL-13 secretion. […] At days 12, 20, and 32 of culture, the T cells were harvested, washed, and re-stimulated with 3/28 beads (3:1 ratio) for 24 hr; the resultant supernatant was harvested and tested for cytokine content by Luminex multi-analyte method. All results shown are expressed as cytokine level in pg per ml per 1×10^6 cells/ml/24 hr. The Th2 cytokine IL-10 was also evaluated: all values were less than 20 pg/ml per 1×10^6 cells/ml/24 hr.
# as §1, with “22A-22D illustrate” for “21A-21D illustrates”, “IL-2, IFN-γ,” for “IL-4, IL-5,”, “GM-CSF” for “IL-13”, “inflammatory cytokines IL-17 and TNF-α were” for “Th2 cytokine IL-10 was”
# [5] = ALS patient, pre- versus post-therapy
# [6] = several clones, pre- versus post-treatment
# [7] = hybrid TREG-Th2 condition, temsirolimus 1.0 μM or pemetrexed 10 nM
compound,measurement,setting,value
etanercept,TCR specificities down-regulated in the post-therapy sample,[1]; [5],approximately 25%
same,TCR specificities up-regulated in the post-therapy sample,[1]; [5],approximately 25%
same,T cell clonal contraction,[1]; [6],more than 4 log
same,T cell clonal expansion,[1]; [6],more than 4 log
same,post-treatment frequencies of contracted T cell clones,"[1]; several clones, 259 to 598 pre-etanercept",0.01
Nc1nc2[nH]cc(CCc3ccc(C(=O)N[C@@H](CCC(=O)O)C(=O)O)cc3)c2c(=O)[nH]1 [pemetrexed],concentration for optimal T cell re-differentiation (numerical perspective),"[2]; TREG-Th2 hybrid polarization (IL-2, TGF-β, IL-4)",10 nM
same,T cell number after re-differentiation in TREG-Th2 polarization condition,"[2]; most stringent de-differentiation (temsirolimus, vitamin D, anti-IL-2 receptor antibody), pemetrexed 10 nM in step 2, 10 days",sufficient T cells
same,T cell number after re-differentiation in pure TREG polarizing condition (IL-2 plus TGF-β without IL-4),"[2]; most stringent de-differentiation, in the presence of pemetrexed (cultures #20 and #21)",unsuccessful
same,T cell yield after re-differentiation in Th1-type polarization,"[2]; pemetrexed not added or 10 to 100 nM, input 1.5×10^6 cells",greatly limited ability to re-differentiate
same,percent of CD8 cells that expressed Tbet,[3],lowest levels
same,percent of CD4 cells that expressed Tbet,"[3]; days 12, 20, 32",most consistently reduced TBET values
same,percent of CD4 cells that expressed GATA3,[3]; end of culture,highest end-of-culture Th2-associated GATA3 expression
same,GM-CSF secretion,[4]; hybrid TREG-Th2 condition supplemented with pemetrexed 10 nM,higher degree
same,IL-5 secretion,[4]; [7],fully preserved
same,IL-13 secretion,[4]; [7],fully preserved
